# Values quoted from earlier work as cited in patent US20170189326A1, “Topical Antiaging Polyphenol Compositions” (priority 2015, published 2017).
# System: dimethylnitrosamine-induced hepatic injury
# Conditions: oral administration, rats
smiles,measurement,value
COc1cc(/C=C/C(=O)CC(=O)/C=C/c2ccc(O)c(OC)c2)ccc1O [curcumin],protection against dimethylnitrosamine-induced hepatic injury,protected
